# From ChEMBL document CHEMBL2380214, “Novel hybrids of (phenylsulfonyl)furoxan and anilinopyrimidine as potent and selective epidermal growth factor receptor inhibitors for intervention of non-small-cell lung cancer” (J Med Chem, 2013)
# Active and inactive are the calls of the source. The calls are words filed in the database; no cut-off is given here.
# Assays:
# [1] = tested on: NCI-H1975; assay: Induction of NO production in human NCI-H1975 cells harboring EGFR L858R/[…] double mutant assessed as increase in nitrite level at 100 uM after 150 mins by Griess assay; type: functional, cell-based
# [2] = cells; type: ADME, cell-based; conditions: Homo sapiens, 16HBE14o-, 72 h
# Description: Cytotoxicity against human 16HBE14o- cells harboring wild type EGFR assessed as growth inhibition after 72 hrs by MTT assay
# [3] = cells; type: ADME, cell-based; conditions: Homo sapiens, BEAS-2B, 72 h
# Description: Cytotoxicity against human BEAS2B cells harboring wild type EGFR assessed as growth inhibition after 72 hrs by MTT assay
# [4] = tested on: A-431; assay: cells; type: ADME, cell-based; conditions: Homo sapiens, A-431, 72 h
# Description: Cytotoxicity against human A431 cells overexpressing wild type EGFR assessed as growth inhibition after 72 hrs by MTT assay
# [5] = tested on: A549; assay: cells; type: ADME, cell-based; conditions: Homo sapiens, A549, 72 h
# Description: Cytotoxicity against human A549 cells harboring wild type EGFR and k-RAS mutation assessed as growth inhibition after 72 hrs by MTT assay
# [6] = tested on: NCI-H1975; assay: Cytotoxicity against gefitinib-resistant human NCI-H1975 cells harboring EGFR L858R/[…] double mutant assessed as growth inhibition after 72 hrs by MTT assay; type: functional, cell-based; conditions: NCI-H1975, 72 h
# [7] = target: Epidermal growth factor receptor (Homo sapiens, UniProt P00533)
# Description: Inhibition of wild type EGFR (unknown origin) after 1.5 hrs by FRET-based Z'Lyte assay
# [8] = cells; type: functional, cell-based; conditions: Homo sapiens, HCC827, 72 h
# [9] = target: Epidermal growth factor receptor (Homo sapiens, UniProt P00533, L858R/T790M); type: protein assay
# Description: Inhibition of EGFR L858R/T790M double mutant (unknown origin) after 1.5 hrs by FRET-based Z'Lyte assay
# [10] = target: Epidermal growth factor receptor (Homo sapiens, UniProt P00533, L858R); type: protein assay
# Description: Inhibition of EGFR L858R mutant (unknown origin) after 1.5 hrs by FRET-based Z'Lyte assay
# [11] = Selectivity ratio of IC50 for human 16HBE14o- cells harboring wild type EGFR to IC50 for gefitinib-resistant human NCI-H1975 cells harboring EGFR L858R/[…] double mutant; type: ADME, cell-based; conditions: read-out: Ratio IC50
# [12] = Selectivity ratio of IC50 for human 16HBE14o- cells harboring wild type EGFR to IC50 for gefitinib-sensitive human HCC827 cells harboring EGFR […] deletion mutant; type: ADME, cell-based; conditions: read-out: Ratio IC50
# [13] = Selectivity ratio of IC50 for human BEAS2B cells harboring wild type EGFR to IC50 for gefitinib-resistant human NCI-H1975 cells harboring EGFR L858R/[…] double mutant; type: ADME, cell-based; conditions: read-out: Ratio IC50
# [14] = Selectivity ratio of IC50 for human BEAS2B cells harboring wild type EGFR to IC50 for gefitinib-sensitive human HCC827 cells harboring EGFR […] deletion mutant; type: ADME, cell-based; conditions: read-out: Ratio IC50
# [15] = Selectivity ratio of IC50 for human A431 cells overexpressing wild type EGFR to IC50 for gefitinib-resistant human NCI-H1975 cells harboring EGFR L858R/[…] double mutant; type: ADME, cell-based
# [16] = Selectivity ratio of IC50 for human A431 cells overexpressing wild type EGFR to IC50 for gefitinib-sensitive human HCC827 cells harboring EGFR […] deletion mutant; type: ADME, cell-based
# [17] = Selectivity ratio of IC50 for human A549 cells harboring wild type EGFR and k-RAS mutation to IC50 for gefitinib-resistant human NCI-H1975 cells harboring EGFR L858R/[…] double mutant; type: ADME, cell-based
# [18] = Selectivity ratio of IC50 for human A549 cells harboring wild type EGFR and k-RAS mutation to IC50 for gefitinib-sensitive human HCC827 cells harboring EGFR […] deletion mutant; type: ADME, cell-based
# [19] = tested on: NCI-H1975; assay: Antitumor activity against gefitinib-resistant human NCI-H1975 cells harboring EGFR L858R/[…] double mutant xenografted in athymic BALB/c nude mouse assessed as tumor growth inhibition at 8 mg/kg, ip qd administered for 14 days measured every other day during compound administration relative to vehicle-treated control; type: functional; conditions: 336 h, route intraperitoneal, read-out: TGI
# [20] = tested on: NCI-H1975; assay: Inhibition of NFkappaB phosphorylation in gefitinib-resistant human NCI-H1975 cells harboring EGFR L858R/[…] double mutant at 0.01 to 1 uM after 24 hrs by Western blot analysis; type: cell-based
# [21] = Induction of apoptosis in EGFR-independent human H460 cells at 1 to 5 uM after 24 hrs by annexin-V/7-AAD staining-based FACS flow cytometric analysis; type: cell-based; conditions: nci-h460, 24 h
# [22] = tested on: HCC827; assay: Induction of apoptosis in gefitinib-sensitive human HCC827 cells harboring EGFR […] deletion mutant after 24 hrs by annexin-V/7-AAD staining-based FACS flow cytometric analysis; type: functional, cell-based
# [23] = tested on: NCI-H1975; assay: Induction of apoptosis in gefitinib-resistant human NCI-H1975 cells harboring EGFR L858R/[…] double mutant after 24 hrs by annexin-V/7-AAD staining-based FACS flow cytometric analysis; type: functional, cell-based
# [24] = Induction of NO production in human 16HBE14o- cells harboring wild type EGFR assessed as increase in nitrite level at 100 uM after 150 mins by Griess assay; type: cell-based; conditions: 2.5 h
# [25] = tested on: Epidermal growth factor receptor (Homo sapiens), P00533 [L858R,T790M]; conditions: NCI-H1975, 0.01 to 1 uM
# [26] = tested on: Epidermal growth factor receptor (Homo sapiens), P00533 [L858R,T790M]; conditions: NCI-H1975, 0.01 to 1 uM; remark: listed apart in the source
# [27] = tested on: Epidermal growth factor receptor (Homo sapiens), P00533 [L858R,T790M]; conditions: NCI-H1975, 0.01 to 1 uM; remark: listed apart in the source
# Epidermal growth factor receptor (Homo sapiens, UniProt P00533, L858R), sequence (P00533 25-1210 L858R limits assumed): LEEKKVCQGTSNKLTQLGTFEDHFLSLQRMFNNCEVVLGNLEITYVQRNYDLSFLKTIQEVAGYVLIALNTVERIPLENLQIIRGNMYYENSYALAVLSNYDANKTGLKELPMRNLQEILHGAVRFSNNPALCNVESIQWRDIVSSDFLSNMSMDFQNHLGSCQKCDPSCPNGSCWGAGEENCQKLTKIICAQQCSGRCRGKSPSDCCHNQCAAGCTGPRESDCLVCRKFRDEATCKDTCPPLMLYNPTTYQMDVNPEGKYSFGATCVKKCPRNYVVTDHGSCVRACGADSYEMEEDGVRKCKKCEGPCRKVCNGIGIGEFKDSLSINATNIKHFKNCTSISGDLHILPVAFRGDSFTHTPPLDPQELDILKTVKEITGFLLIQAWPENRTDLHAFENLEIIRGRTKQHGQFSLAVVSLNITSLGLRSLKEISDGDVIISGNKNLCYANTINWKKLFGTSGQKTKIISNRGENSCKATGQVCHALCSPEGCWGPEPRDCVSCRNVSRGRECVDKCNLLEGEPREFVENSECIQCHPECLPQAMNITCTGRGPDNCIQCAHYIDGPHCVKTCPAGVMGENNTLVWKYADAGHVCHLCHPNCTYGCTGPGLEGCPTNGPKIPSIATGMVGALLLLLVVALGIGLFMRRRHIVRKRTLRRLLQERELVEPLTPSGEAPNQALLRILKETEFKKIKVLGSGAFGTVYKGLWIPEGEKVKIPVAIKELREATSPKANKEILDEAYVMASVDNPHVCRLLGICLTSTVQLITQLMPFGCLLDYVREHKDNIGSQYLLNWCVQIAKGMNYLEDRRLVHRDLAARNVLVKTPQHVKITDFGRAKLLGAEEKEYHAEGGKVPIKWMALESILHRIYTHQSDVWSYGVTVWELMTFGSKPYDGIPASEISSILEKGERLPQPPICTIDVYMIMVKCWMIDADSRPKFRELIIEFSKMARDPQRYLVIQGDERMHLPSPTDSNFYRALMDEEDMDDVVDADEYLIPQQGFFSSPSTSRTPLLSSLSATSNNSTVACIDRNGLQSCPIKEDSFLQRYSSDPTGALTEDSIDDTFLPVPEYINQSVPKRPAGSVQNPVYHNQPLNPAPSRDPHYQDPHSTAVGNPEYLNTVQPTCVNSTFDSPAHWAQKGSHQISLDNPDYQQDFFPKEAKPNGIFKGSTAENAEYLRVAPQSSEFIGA
# Epidermal growth factor receptor (Homo sapiens, UniProt P00533, L858R/T790M), sequence (P00533 25-1210 T790M/L858R limits assumed): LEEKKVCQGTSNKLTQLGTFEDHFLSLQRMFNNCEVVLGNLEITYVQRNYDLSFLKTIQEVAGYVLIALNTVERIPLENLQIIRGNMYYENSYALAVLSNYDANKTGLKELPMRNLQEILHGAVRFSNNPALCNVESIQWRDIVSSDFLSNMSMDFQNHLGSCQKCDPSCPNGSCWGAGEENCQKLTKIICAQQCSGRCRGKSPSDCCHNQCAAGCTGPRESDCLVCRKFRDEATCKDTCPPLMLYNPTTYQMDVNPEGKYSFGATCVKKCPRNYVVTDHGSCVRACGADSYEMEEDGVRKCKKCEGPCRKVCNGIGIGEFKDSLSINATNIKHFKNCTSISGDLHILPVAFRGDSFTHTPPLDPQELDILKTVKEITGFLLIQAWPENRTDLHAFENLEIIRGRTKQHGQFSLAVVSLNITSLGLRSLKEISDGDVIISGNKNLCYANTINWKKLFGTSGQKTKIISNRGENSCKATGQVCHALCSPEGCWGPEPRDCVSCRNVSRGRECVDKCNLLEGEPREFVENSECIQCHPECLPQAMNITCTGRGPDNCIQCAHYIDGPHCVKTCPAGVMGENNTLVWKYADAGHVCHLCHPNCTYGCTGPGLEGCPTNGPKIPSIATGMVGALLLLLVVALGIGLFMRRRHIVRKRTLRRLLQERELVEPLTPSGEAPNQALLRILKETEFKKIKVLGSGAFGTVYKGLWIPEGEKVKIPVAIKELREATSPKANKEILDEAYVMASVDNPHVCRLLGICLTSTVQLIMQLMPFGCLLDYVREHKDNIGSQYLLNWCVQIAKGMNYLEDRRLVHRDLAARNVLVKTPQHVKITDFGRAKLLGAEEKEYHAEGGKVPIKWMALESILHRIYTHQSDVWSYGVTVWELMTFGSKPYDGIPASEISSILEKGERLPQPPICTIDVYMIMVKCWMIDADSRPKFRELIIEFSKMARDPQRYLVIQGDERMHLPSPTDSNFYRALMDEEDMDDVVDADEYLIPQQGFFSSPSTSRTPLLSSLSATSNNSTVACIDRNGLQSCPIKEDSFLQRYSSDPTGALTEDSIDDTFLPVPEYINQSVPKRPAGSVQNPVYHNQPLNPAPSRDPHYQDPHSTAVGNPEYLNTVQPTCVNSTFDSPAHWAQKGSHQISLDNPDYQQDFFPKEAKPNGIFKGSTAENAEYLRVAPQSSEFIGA
# Epidermal growth factor receptor (Homo sapiens), P00533 [L858R,T790M], sequence (P00533 whole entry T790M/L858R, looked up): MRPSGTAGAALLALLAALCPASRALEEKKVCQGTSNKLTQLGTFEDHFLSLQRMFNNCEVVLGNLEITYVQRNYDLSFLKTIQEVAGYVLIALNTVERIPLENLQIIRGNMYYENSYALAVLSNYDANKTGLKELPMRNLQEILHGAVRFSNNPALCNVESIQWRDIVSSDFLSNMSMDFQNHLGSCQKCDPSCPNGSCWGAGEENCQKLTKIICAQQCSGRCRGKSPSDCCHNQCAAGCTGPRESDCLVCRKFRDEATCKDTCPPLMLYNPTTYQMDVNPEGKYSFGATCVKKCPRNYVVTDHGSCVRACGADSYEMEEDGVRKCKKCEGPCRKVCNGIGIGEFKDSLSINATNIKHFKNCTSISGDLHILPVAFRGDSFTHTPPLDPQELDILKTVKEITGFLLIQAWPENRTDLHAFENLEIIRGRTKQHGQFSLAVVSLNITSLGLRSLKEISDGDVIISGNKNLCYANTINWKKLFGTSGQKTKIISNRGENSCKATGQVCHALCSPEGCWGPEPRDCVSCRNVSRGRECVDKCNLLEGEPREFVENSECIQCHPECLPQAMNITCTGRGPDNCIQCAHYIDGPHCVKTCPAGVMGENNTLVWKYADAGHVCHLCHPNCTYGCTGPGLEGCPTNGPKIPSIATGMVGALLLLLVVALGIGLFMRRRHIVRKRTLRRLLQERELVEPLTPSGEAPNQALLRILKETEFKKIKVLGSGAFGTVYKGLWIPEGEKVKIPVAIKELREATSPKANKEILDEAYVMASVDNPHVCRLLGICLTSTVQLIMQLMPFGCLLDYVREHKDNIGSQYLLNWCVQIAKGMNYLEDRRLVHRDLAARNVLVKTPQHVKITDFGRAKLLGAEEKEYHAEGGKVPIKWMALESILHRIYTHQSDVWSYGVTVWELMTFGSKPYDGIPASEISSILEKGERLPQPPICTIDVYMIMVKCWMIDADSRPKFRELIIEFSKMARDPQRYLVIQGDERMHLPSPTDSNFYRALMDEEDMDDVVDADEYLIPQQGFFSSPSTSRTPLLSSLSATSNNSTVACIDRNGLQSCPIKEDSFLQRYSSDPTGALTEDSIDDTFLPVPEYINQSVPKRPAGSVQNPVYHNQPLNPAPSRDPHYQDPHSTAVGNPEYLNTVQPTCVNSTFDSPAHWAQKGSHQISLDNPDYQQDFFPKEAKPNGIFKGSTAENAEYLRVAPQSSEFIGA
# Epidermal growth factor receptor (Homo sapiens, UniProt P00533), sequence (P00533 whole entry): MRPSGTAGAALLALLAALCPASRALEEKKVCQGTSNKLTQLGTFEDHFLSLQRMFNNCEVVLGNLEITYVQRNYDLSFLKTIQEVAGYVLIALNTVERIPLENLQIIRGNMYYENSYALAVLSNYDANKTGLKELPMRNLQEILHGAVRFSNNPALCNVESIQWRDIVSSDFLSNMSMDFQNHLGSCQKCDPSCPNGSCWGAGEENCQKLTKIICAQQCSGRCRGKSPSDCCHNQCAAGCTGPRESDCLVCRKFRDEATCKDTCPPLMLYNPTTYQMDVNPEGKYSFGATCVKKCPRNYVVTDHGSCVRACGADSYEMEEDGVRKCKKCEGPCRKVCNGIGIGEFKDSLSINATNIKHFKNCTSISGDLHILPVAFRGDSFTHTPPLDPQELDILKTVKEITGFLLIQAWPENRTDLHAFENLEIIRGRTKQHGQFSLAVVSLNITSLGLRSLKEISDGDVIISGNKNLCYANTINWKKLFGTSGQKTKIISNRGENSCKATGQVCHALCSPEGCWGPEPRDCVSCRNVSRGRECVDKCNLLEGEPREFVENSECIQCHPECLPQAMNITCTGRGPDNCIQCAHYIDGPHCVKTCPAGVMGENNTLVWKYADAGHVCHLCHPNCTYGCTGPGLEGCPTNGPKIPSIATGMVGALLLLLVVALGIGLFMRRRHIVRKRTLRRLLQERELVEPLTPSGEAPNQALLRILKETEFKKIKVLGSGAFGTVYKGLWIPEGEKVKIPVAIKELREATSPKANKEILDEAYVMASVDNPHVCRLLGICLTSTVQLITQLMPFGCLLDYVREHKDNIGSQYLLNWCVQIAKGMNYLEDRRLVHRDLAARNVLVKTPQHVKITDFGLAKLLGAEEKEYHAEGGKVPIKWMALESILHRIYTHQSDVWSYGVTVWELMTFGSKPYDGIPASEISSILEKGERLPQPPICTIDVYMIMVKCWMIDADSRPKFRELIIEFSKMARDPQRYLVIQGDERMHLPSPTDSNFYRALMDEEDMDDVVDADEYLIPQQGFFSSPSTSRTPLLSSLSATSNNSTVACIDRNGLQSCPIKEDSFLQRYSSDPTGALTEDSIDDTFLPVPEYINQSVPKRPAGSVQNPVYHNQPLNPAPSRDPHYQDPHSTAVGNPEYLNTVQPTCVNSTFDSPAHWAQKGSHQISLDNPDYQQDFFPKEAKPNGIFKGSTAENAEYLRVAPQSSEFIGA
Compound,Activity [1],IC50 [2],IC50 [3],IC50 [4],IC50 [5],IC50 [6],IC50 [7],IC50 [8],IC50 [9],IC50 [10],further results
C=CC(=O)Nc1cccc(Oc2nc(Nc3ccc(N4CCN(CC(=O)NCC(C)Oc5no[n+]([O-])c5S(=O)(=O)c5ccccc5)CC4)cc3OC)ncc2Cl)c1 (stereo not given),Active,1850 nM,988 nM,660 nM,1790 nM,245 nM,73 nM,38 nM,20 nM,99 nM,
C=CC(=O)Nc1cccc(Oc2nc(Nc3ccc(N4CCN(CC(=O)OCCOCCOc5no[n+]([O-])c5S(=O)(=O)c5ccccc5)CC4)cc3OC)ncc2Cl)c1,Active,3160 nM,2940 nM,3020 nM,4450 nM,471 nM,101 nM,41 nM,30 nM,113 nM,
C=CC(=O)Nc1cccc(Oc2nc(Nc3ccc(N4CCN(CC(=O)NCCCOc5no[n+]([O-])c5S(=O)(=O)c5ccccc5)CC4)cc3OC)ncc2Cl)c1,,2280 nM,2440 nM,357 nM,2480 nM,1030 nM,59 nM,21 nM,13 nM,68 nM,
C=CC(=O)Nc1cccc(Oc2nc(Nc3ccc(N4CCN(CC(=O)OCCCCOc5no[n+]([O-])c5S(=O)(=O)c5ccccc5)CC4)cc3OC)ncc2Cl)c1,,4150 nM,2560 nM,4070 nM,17200 nM,69 nM,174 nM,6 nM,38 nM,189 nM,selectivity ratio [11]: 40; selectivity ratio [12]: 40; selectivity ratio [13]: 40; selectivity ratio [14]: 40; Ratio IC50 [15]: 60; Ratio IC50 [16]: 60; Ratio IC50 [17]: 60; Ratio IC50 [18]: 60
C=CC(=O)Nc1cccc(Oc2nc(Nc3ccc(N4CCN(CC(=O)N5CCN(CCOc6no[n+]([O-])c6S(=O)(=O)c6ccccc6)CC5)CC4)cc3OC)ncc2Cl)c1,Active,1480 nM,1890 nM,609 nM,2120 nM,311 nM,39 nM,291 nM,6 nM,40 nM,
C=CC(=O)Nc1cccc(Oc2nc(Nc3ccc(N4CCN(CC(=O)OCCOc5no[n+]([O-])c5S(=O)(=O)c5ccccc5)CC4)cc3OC)ncc2Cl)c1,,2040 nM,1350 nM,1230 nM,2560 nM,63 nM,59 nM,7 nM,17 nM,83 nM,
C=CC(=O)Nc1cccc(Oc2nc(Nc3ccc(N4CCN(CC(=O)OCC)CC4)cc3OC)ncc2Cl)c1,,707 nM,> 50000 nM,> 10000 nM,1450 nM,1510 nM,,100 nM,,,
O=S(=O)(c1ccccc1)c1c(OCCCCCCO)no[n+]1[O-],Active,3400 nM,1240 nM,3380 nM,23600 nM,5930 nM,,4290 nM,,,
C=CC(=O)Nc1cccc(Oc2nc(Nc3ccc(N4CCN(CC(=O)OCCCOc5no[n+]([O-])c5S(=O)(=O)c5ccccc5)CC4)cc3OC)ncc2Cl)c1,,2580 nM,2980 nM,1060 nM,2930 nM,396 nM,99 nM,22 nM,23 nM,98 nM,
C=CC(=O)Nc1cccc(Oc2nc(Nc3ccc(N4CCN(C)CC4)cc3OC)ncc2Cl)c1,inactive,,1810 nM,,2100 nM,46 nM,,8 nM,,,inhibition in vivo at 8 mg/kg [19]: 69%; inhibition [20]: inactive; Activity [21]: Non-toxic; Activity [22]: Dose-dependent effect; Activity [23]: Dose-dependent effect; Activity [24]: Non-toxic; inhibition [25]: Active; inhibition [26]: Active; inhibition [27]: Active
C=CC(=O)Nc1cccc(Oc2nc(Nc3ccc(N4CCN(CC(=O)NCCOc5no[n+]([O-])c5S(=O)(=O)c5ccccc5)CC4)cc3OC)ncc2Cl)c1,Active,1550 nM,1530 nM,736 nM,2260 nM,2020 nM,51 nM,9 nM,14 nM,63 nM,
C=CC(=O)Nc1cccc(Oc2nc(Nc3ccc(N4CCN(CC(=O)N5CCC(Oc6no[n+]([O-])c6S(=O)(=O)c6ccccc6)CC5)CC4)cc3OC)ncc2Cl)c1,,1800 nM,2200 nM,701 nM,4250 nM,855 nM,42 nM,33 nM,13 nM,66 nM,
C=CC(=O)Nc1cccc(Oc2nc(Nc3ccc(N4CCN(CC(=O)OCC#CCOc5no[n+]([O-])c5S(=O)(=O)c5ccccc5)CC4)cc3OC)ncc2Cl)c1,Active,2620 nM,959 nM,3500 nM,5530 nM,43 nM,52 nM,10 nM,16 nM,64 nM,
